The results in this text go back to patent US12065429B2, “Small molecule modulators of IL-17” (LEO Pharma A/S, priority 2022, dated 2024).

Data set [1] is described as follows: Human liver microsome (HLM) clearance assay. The class given is in vitro ADME. The following applies: human liver microsomes 0.5 mg/mL, NADPH 1 mM, 0.5 μM compound, 40 min. As for the experimental part:
Example 63: Human Liver Microsome (HLM) Clearance Assay
Samples were taken out before addition of NADPH, and at 5, 10, 20 and 40 minutes thereafter and protein precipitation using cold acetonitrile with added internal standard was performed prior to centrifugation and sample analysis using compound specific LCMS/MS methods. Control incubations in buffer and without NADPH were performed in the same manner. Compound depletion was determined and apparent clearance (CLapp) was calculated.
(In general: Microsomes from liver hold many membrane-bound enzymes, among them those of drug oxidation.)

Data set [2] is described as follows: Solubility assay. Type of data set: physicochemical. Conditions: aqueous buffer, kinetic from dmso stock; 0.067 M phosphate buffer pH 6.5, 24 hours shaking, from 10 mM DMSO stock. As for the experimental part:
After centrifugation, the supernatant was analyzed by HPLC-UV. The solubility was defined as the concentration of the test substance in the selected solvent. It was determined by correlation with an external standard calibration curve.

In brackets after ≈: the same amount, converted by molar mass.

For orientation: solubility means the concentration that dissolves in the medium under given conditions. Low readings indicate little dissolved substance, high ones much dissolved substance.

Consider `CC(C)n1nccc1C(=O)N[C@H](C(=O)Nc1ccc(-c2c[n+]([O-])cc(F)c2C(F)(F)F)c(F)n1)C(C1CC1)C1CC1` [Example 50, N-[(1S)-1-(dicyclopropylmethyl)-2-[[6-fluoro-5-[5-fluoro-1-oxido-4-(trifluoromethyl)pyridin-1-ium-3-yl]-2-pyridyl]amino]-2-oxo-ethyl]-2-isopropyl-pyrazole-3-carboxamide], for which, in data set [1], the “HLM Clapp” value is 0.6 L/h/kg. For the same molecule, in data set [2], the solubility at 24 h was < 0.001 mg/mL.

`CCc1cc[n+]([O-])cc1-c1ccc(NC(=O)[C@@H](NC(=O)c2ccnn2C(C)C)C(C2CC2)C2CC2)nc1F` [Example 53, N-[(1S)-1-(dicyclopropylmethyl)-2-[[5-(4-ethyl-1-oxido-pyridin-1-ium-3-yl)-6-fluoro-2-pyridyl]amino]-2-oxo-ethyl]-2-isopropyl-pyrazole-3-carboxamide]: the “HLM Clapp” value in data set [1] was <0.48 L/h/kg. Also, the solubility at 24 h in data set [2] was found to be 0.039 mg/mL (≈ 74.9 µM).

As for `Cc1c(-c2ccc(NC(=O)[C@@H](NC(=O)c3ccnn3C(C)C)C(C3CC3)C3CC3)nc2F)cc(Cl)c[n+]1[O-]` [Example 11, N-[(1S)-1-[[5-(5-chloro-2-methyl-1-oxido-pyridin-1-ium-3-yl)-6-fluoro-2-pyridyl]carbamoyl]-2,2-dicyclopropyl-ethyl]-2-isopropyl-pyrazole-3-carboxamide], the “HLM Clapp” value in data set [1] is <0.48 L/h/kg. In data set [2], this molecule displayed a solubility at 24 h of 0.0065 mg/mL (≈ 12 µM).

For the molecule `Cc1cc[n+]([O-])cc1-c1ccc(NC(=O)[C@@H](NC(=O)c2ccnn2C(C)C)C(C2CC2)C2CC2)nc1F` [Example 15, N-[(1S)-1-(dicyclopropylmethyl)-2-[[6-fluoro-5-(4-methyl-1-oxido-pyridin-1-ium-3-yl)-2-pyridyl]amino]-2-oxo-ethyl]-2-isopropyl-pyrazole-3-carboxamide], the “HLM Clapp” value in data set [1] was <0.48 L/h/kg. In addition, the solubility at 24 h in data set [2] amounted to 0.097 mg/mL (≈ 191 µM).

`Cc1c(-c2ccc(NC(=O)[C@@H](NC(=O)c3ccnn3C(C)C)C(C3CC3)C3CC3)nc2Cl)cc(F)c[n+]1[O-]` [Example 19, N-[(1S)-1-[[6-chloro-5-(5-fluoro-2-methyl-1-oxido-pyridin-1-ium-3-yl)-2-pyridyl]carbamoyl]-2,2-dicyclopropyl-ethyl]-2-isopropyl-pyrazole-3-carboxamide]: in data set [1], the “HLM Clapp” value was <0.48 L/h/kg. The solubility at 24 h in data set [2] is 0.018 mg/mL (≈ 33.3 µM).

In the case of `CCCn1nccc1C(=O)N[C@H](C(=O)Nc1ccc(-c2cc(C)c[n+]([O-])c2C)c(F)n1)C(C1CC1)C1CC1` [Example 20, N-[(1S)-1-(dicyclopropylmethyl)-2-[[5-(2,5-dimethyl-1-oxido-pyridin-1-ium-3-yl)-6-fluoro-2-pyridyl]amino]-2-oxo-ethyl]-2-propyl-pyrazole-3-carboxamide], in data set [1], the “HLM Clapp” value is 4.44 L/h/kg. This molecule gave a solubility at 24 h in data set [2] of 0.038 mg/mL (≈ 73 µM).

For `CCc1c(-c2ccc(NC(=O)[C@@H](NC(=O)c3ccnn3C(C)C)C(C3CC3)C3CC3)nc2F)ccc[n+]1[O-]` [Example 5, N-[(1S)-1-(dicyclopropylmethyl)-2-[[5-(2-ethyl-1-oxido-pyridin-1-ium-3-yl)-6-fluoro-2-pyridyl]amino]-2-oxo-ethyl]-2-isopropyl-pyrazole-3-carboxamide], in data set [1], the “HLM Clapp” value is <0.48 L/h/kg. The same molecule gave a solubility at 24 h in data set [2] of 0.035 mg/mL (≈ 67.2 µM).

Consider `CCOc1cc(-c2ccc(NC(=O)[C@@H](NC(=O)c3ccnn3C(C)C)C(C3CC3)C3CC3)nc2F)c(C)[n+]([O-])c1` [Example 10, N-[(1S)-1-(dicyclopropylmethyl)-2-[[5-(5-ethoxy-2-methyl-1-oxido-pyridin-1-ium-3-yl)-6-fluoro-2-pyridyl]amino]-2-oxo-ethyl]-2-isopropyl-pyrazole-3-carboxamide], for which, in data set [1], the “HLM Clapp” value worked out at 1.32 L/h/kg. Besides, in data set [2], the solubility at 24 h came out at 0.009 mg/mL (≈ 16.3 µM).
